Data reported in publication PMC12584665, “In vitro and in vivo efficacy of vancomycin against Elizabethkingia species and the impact of increased vancomycin MICs” (Microbiology Spectrum, 2025).
≈ marks a conversion by molar mass, not a printed value.

How the values were obtained:
[1] = test system: Elizabethkingia anophelis; test: Murine neutropenic thigh infection model; type: in vivo, C57BL/6J mice
Method: (§1) In vivo efficacy was assessed by wax moth (Galleria mellonella), murine pneumonia, and murine thigh infection models following the protocols of our previous study ([2]). The Animal Ethics Committee of Taiwan’s National Health Research Institutes approved the murine pneumonia and thigh infection models.
For the thigh infection model, seven-week-old C57BL/6J mice were rendered neutropenic by intraperitoneal injections of cyclophosphamide (Cytoxan; Bristol-Myers Squibb, Princeton, NJ, USA) 4 days (150 mg/kg) and 1 day (100 mg/kg) before bacterial inoculation. A 30 µL aliquot containing the E. anophelis (10^7 cfu) was injected into each of the two rear thighs. Vancomycin (25 mg/kg or 100 mg/kg, subcutaneous) or teicoplanin (50 mg/kg, intraperitoneal) was administered 2 h and 14 h after inoculation. Mice were sacrificed 24 h post-inoculation, and homogenized thigh tissue was plated in serial 10-fold dilutions on brain-heart infusion agar to determine bacterial counts. Each mouse, not each thigh, was considered an individual data point.

[2] = test system: Elizabethkingia anophelis; test: Galleria mellonella (wax moth) infection survival model; type: in vivo
Method: as §1
G. mellonella was reared at the National Health Research Institutes of Taiwan. Caterpillars in the final instar larval stage (weight ca. 250 mg) were used. […] A 10 µL aliquot of E. anophelis at the predetermined lethal dose was injected into the hemocoel of each caterpillar via the last left proleg. Antibiotics were administered once into another proleg at the indicated time points; vancomycin (5, 10, or 20 mg/kg, 2 h post-inoculation); other glycopeptides (teicoplanin, 10 mg/kg, 30 min post-inoculation; dalbavancin, 8.75 mg/kg, 2 h post-inoculation; oritavancin, 15 mg/kg, 1 h post-inoculation) ([11][–][13]); or daptomycin (10 mg/kg, 2 h post-inoculation) ([13]). Each treatment group contained 6–8 caterpillars. A control group injected with sterile PBS was included to monitor for trauma-related mortality. Caterpillars were incubated at 37°C, and survival was recorded twice daily for 72 h.

[3] = test system: Elizabethkingia anophelis; test: Agar dilution (AD) MIC; type: cell-based
Source text: (§2) Eighteen E. anophelis clinical isolates from the nationwide surveillance program (Taiwan Surveillance of Antimicrobial Resistance) were well characterized in our previous study ([7]) and were selected for susceptibility testing and minimum bactericidal concentration (MBC) assays. Among them, five isolates with different clonality (underlined strains in Fig. S1) were selected for the time-kill assays and in vivo experiments.
(§3) Broth microdilution, disc diffusion, Etest, and agar dilution assays were conducted following CLSI guidelines to determine vancomycin MICs ([8]). […] Criteria for Staphylococcus spp. were not adopted due to the lack of a zone diameter breakpoint. MBCs were determined following CLSI guidelines ([8]).

[4] = test system: Acinetobacter baumannii (LAC-4); test: Murine pneumonia model (model validation); type: in vivo, C57BL/6J mice; settings: 8 mice per group
Method: (§4) For the pneumonia model, a bacterial suspension was mixed with 5% mucin from porcine stomach (type 3; Sigma-Aldrich, Saint Louis, USA). Seven-week-old C57BL/6J mice were anesthetized with isoflurane for 10 min. For each strain, the inoculum corresponded to the lowest dose that caused >80% mortality in preliminary testing. This inoculum (10⁶–10⁸ cfu, depending on strain) was delivered intratracheally to induce pneumonia. Two hours thereafter, mice received either high or human-equivalent doses of subcutaneous vancomycin (100 mg/kg or 25 mg/kg, respectively) or intraperitoneal teicoplanin (50 mg/kg) ([17]) twice daily for 3 days. Each group contained eight mice, and survival was monitored for 3 days.

[5] = test system: Elizabethkingia anophelis; test: Etest MIC; type: cell-based
Source text: as §2, §3

[6] = test system: Elizabethkingia anophelis; test: Murine pneumonia model; type: in vivo, C57BL/6J mice; settings: for survival of infected mice: 8 mice per group
Method: as §1, §4

[7] = test system: Elizabethkingia anophelis; test: Time-kill assay; type: cell-based; settings: triplicate; for growth in time-kill assay: five clinical isolates, MH broth, ~5 x 10^5 CFU/mL, 37°C
Method: Time-kill assays were performed as previously described with modifications ([10]). Each 250 mL flask containing 30 mL MH broth (Becton Dickinson, Franklin Lakes, NJ, USA) was inoculated to achieve an initial bacterial density of ~5 × 10⁵ CFU/mL. Cultures were incubated at 37°C with shaking at 200 rpm. Vancomycin or teicoplanin (Sigma-Aldrich, Saint Louis, MO, USA) was added at final concentrations of 4 or 16 mg/L. At designated time points, 100 µL of samples was removed, serially diluted in sterile saline, and plated on MH agar for CFU enumeration after overnight incubation at 37°C. No washing steps were performed prior to plating; given the culture volume and dilution scheme, antibiotic carryover was expected to be negligible. All experiments were performed in triplicate.

[8] = 100 mg/kg twice daily, infection by 2008S01-229-VAN-R compared to 2008S01-229
[9] = E. anophelis clinical isolate 2008N05-106
[10] = E. anophelis clinical isolate 2008S01-229
[11] = E. anophelis clinical isolate 2014C06-157
[12] = E. anophelis clinical isolate 2016N17-576
[13] = E. anophelis clinical isolate 2018C04-213
[14] = E. anophelis clinical isolate 2018C04-224
[15] = E. anophelis clinical isolate 2018C07-210
[16] = E. anophelis clinical isolate 2018C07-234
[17] = E. anophelis clinical isolate 2018C08-127
[18] = E. anophelis clinical isolate 2018E03-151
[19] = E. anophelis clinical isolate 2018E04-135
[20] = E. anophelis clinical isolate 2018N16-057
[21] = E. anophelis clinical isolate 2018N17-036
[22] = E. anophelis clinical isolate 2018N17-073
[23] = E. anophelis clinical isolate 2018N17-153
[24] = E. anophelis clinical isolate 2018N21-226
[25] = E. anophelis clinical isolate 2018S09-023
[26] = E. anophelis clinical isolate 2018S11-172

CN[C@H](CC(C)C)C(=O)N[C@H]1C(=O)N[C@@H](CC(N)=O)C(=O)N[C@H]2C(=O)N[C@H]3C(=O)N[C@H](C(=O)N[C@H](C(=O)O)c4cc(O)cc(O)c4-c4cc3ccc4O)[C@H](O)c3ccc(c(Cl)c3)Oc3cc2cc(c3O[C@@H]2O[C@H](CO)[C@@H](O)[C@H](O)[C@H]2O[C@H]2C[C@](C)(N)[C@H](O)[C@H](C)O2)Oc2ccc(cc2Cl)[C@H]1O [Vancomycin]
bacterial loads in thigh ([1]; 25 mg/kg subcutaneous 2 h and 14 h after inoculation, neutropenic mice, 24 h, all clinical strains, 4 mice per group): modestly reduced the bacterial loads | bacterial load in thigh ([1]; 100 mg/kg subcutaneous 2 h and 14 h after inoculation, neutropenic mice, 24 h, compared with 25 mg/kg): greater reduction of bacterial load | reduction of bacterial load [1, 8]: hampered | survival of infected wax moths ([2]; 10 mg/kg once, 2 h post-inoculation, five E. anophelis isolates, 72 h, 37°C, 6-8 caterpillars per group): improved the survival | improvement of larval survival ([2]; 10 mg/kg, infection by 2008S01-229-VAN-R compared to 2008S01-229): hampered | dose dependence of survival of infected wax moths ([2]; 5, 10 and 20 mg/kg once, 2 h post-inoculation, two clinical isolates): dose-dependent effect | MIC [3, 9]: 16 µg/mL (≈ 11 µM) | MIC [3, 10]: 16 µg/mL (≈ 11 µM) | MIC [3, 11]: 16 µg/mL (≈ 11 µM) | MIC [3, 12]: 16 µg/mL (≈ 11 µM) | MIC [3, 13]: 16 µg/mL (≈ 11 µM) | MIC [3, 14]: 16 µg/mL (≈ 11 µM) | MIC [3, 15]: 16 µg/mL (≈ 11 µM) | MIC [3, 16]: 16 µg/mL (≈ 11 µM) | MIC [3, 17]: 16 µg/mL (≈ 11 µM) | MIC [3, 18]: 16 µg/mL (≈ 11 µM) | MIC [3, 19]: 16 µg/mL (≈ 11 µM) | MIC [3, 20]: 16 µg/mL (≈ 11 µM) | MIC [3, 21]: 16 µg/mL (≈ 11 µM) | MIC [3, 22]: 16 µg/mL (≈ 11 µM) | MIC [3, 23]: 16 µg/mL (≈ 11 µM) | MIC [3, 24]: 16 µg/mL (≈ 11 µM) | MIC [3, 25]: 16 µg/mL (≈ 11 µM) | MIC [3, 26]: 32 µg/mL (≈ 22.1 µM) | survival of A. baumannii-infected mice ([4]; 100 mg/kg subcutaneous twice daily): did not improve the survival | activity in A. baumannii pneumonia model ([4]; 25 or 100 mg/kg subcutaneous twice daily, A. baumannii LAC-4): Lack of vancomycin (VAN) activity | MIC [5, 9]: 24 µg/mL (≈ 16.6 µM) | MIC [5, 10]: 16 µg/mL (≈ 11 µM) | MIC [5, 11]: 16 µg/mL (≈ 11 µM) | MIC [5, 12]: 16 µg/mL (≈ 11 µM) | MIC [5, 13]: 16 µg/mL (≈ 11 µM) | MIC [5, 14]: 16 µg/mL (≈ 11 µM) | MIC [5, 15]: 16 µg/mL (≈ 11 µM) | MIC [5, 16]: 16 µg/mL (≈ 11 µM) | MIC [5, 17]: 16 µg/mL (≈ 11 µM) | MIC [5, 18]: 16 µg/mL (≈ 11 µM) | MIC [5, 19]: 16 µg/mL (≈ 11 µM) | MIC [5, 20]: 16 µg/mL (≈ 11 µM) | MIC [5, 21]: 16 µg/mL (≈ 11 µM) | MIC [5, 22]: 16 µg/mL (≈ 11 µM) | MIC [5, 23]: 16 µg/mL (≈ 11 µM) | MIC [5, 24]: 24 µg/mL (≈ 16.6 µM) | MIC [5, 25]: 16 µg/mL (≈ 11 µM) | MIC [5, 26]: 32 µg/mL (≈ 22.1 µM) | survival of infected mice ([6]; 25 mg/kg subcutaneous twice daily for 3 days, from 2 h after intratracheal inoculation, all clinical strains except 2014C06-157): significantly improved the survival or delayed death | in vivo efficacy against one isolate ([6]; 25 mg/kg, one isolate with similar MIC (2014C06-157)): ineffective | survival of infected mice ([6]; 100 mg/kg subcutaneous twice daily for 3 days): conferred a survival benefit | improvement of murine survival [6, 8]: hampered | growth in time-kill assay ([7]; 4 mg/L): did not inhibit the growth | growth in time-kill assay ([7]; 16 mg/L): Growth was inhibited at a higher level (16 mg/L) at 6 h but increased thereafter | time-kill assay ([7]; 4 or 16 mg/L, mutant 2008S01-229-VAN-R): no effect
